Here are results for 16 compounds from ChEMBL document CHEMBL5154756 (Bioorg Med Chem, 2022).

Active and inactive are the calls of the source. The rule behind the calls is not given here. Where only a bound is given, the exact number is not on record here.

In one series the test system is MCF7. The series is described as follows: Antiproliferative activity against human MCF7 cells over expressing GLUT1 measured after 72 hrs by MTT assay. The format is functional, cell-based. The settings on record: MCF7, 72 h. Background: Formazan colour is commonly taken as a measure of viable cells.
Series [1] deals with HT-29. The series is described as follows: Antiproliferative activity against human HT-29 cells over expressing GLUT1 measured after 72 hrs by MTT assay. The format is functional, cell-based. Conditions: HT-29, 72 h.
The next series deals with Hep 3B2. The series is described as follows: Antiproliferative activity against human Hep3B cells measured after 72 hrs by MTT assay. The format is functional, cell-based.
Series [2] is described as follows: Selectivity ratio of IC50 for human Hep3B cells to IC50 for human HT-29 cells. The format is functional.
Series [3] can be described thus: Cytotoxicity against HUVEC measured after 72 hrs by MTT assay. The format is toxicity, cell-based. Conditions: human, HUVEC cells.
For series [4], the system named is HT-29. The series is described as follows: Antiproliferative activity against human HT-29 cells over expressing GLUT1 assessed as cell viability at 8 uM measured after 48 hrs by MTT assay relative to control. The format is functional. The settings on record: read-out: Activity.
The target of series [5] is T1, Tubulin (Homo sapiens) (UniProt P68371+Q9H4B7+P0DPH7+P68366+Q13509+Q71U36+P04350+Q3ZCM7+P07437+P68363+Q9BQE3+Q6PEY2+Q13885+Q9BVA1+Q9BUF5). The series is described as follows: Inhibition of tubulin polymerization in human A549 cells assessed as appearance of wrapped microtubule around nucleus at 0.766 uM measured after 24 hrs by immunofluorescence confocal microscopic analysis. The format is cell-based.

For another series, the target named is Tubulin (Sus scrofa) (UniProt P02554+P02550). The series is described as follows: Inhibition of porcine brain tubulin polymerization assessed as inhibition of microtubule polymerization measured at 1 min interval for 90 mins by microplate reader method. The settings on record: dose 12.5-25 µM, DDE = dose-dependent effect.
A short description of series [6]: Selectivity ratio of IC50 for human Hep3B cells to IC50 for human MCF7 cells. Type of series: functional.
Series [7] concerns HT-29. The experiment in a line: Antiproliferative activity against human HT-29 cells over expressing GLUT1 assessed as cell viability at 4 uM measured after 48 hrs in presence of GLUT1-specific inhibitor quercetin by MTT assay relative to control. The format is functional. The settings on record: read-out: Activity.
In series [8] the test system is HT-29. The series is described as follows: Antiproliferative activity against human HT-29 cells over expressing GLUT1 assessed as cell viability at 4 uM measured after 48 hrs by MTT assay relative to control. Type of series: functional. The settings on record: read-out: Activity.
Series [9] relates to HT-29. The series is described as follows: Antiproliferative activity against human HT-29 cells over expressing GLUT1 assessed as cell viability at 8 uM measured after 48 hrs in presence of GLUT1-specific inhibitor quercetin by MTT assay relative to control. The format is functional. Conditions: read-out: Activity.
Series [10] concerns the target T1, Tubulin (Homo sapiens). The experiment in a line: Inhibition of tubulin polymerization in human A549 cells assessed as appearance of short microtubule at 0.766 uM measured after 24 hrs by immunofluorescence confocal microscopic analysis. Type of series: cell-based.
For series [11], the system named is HT-29. The series is described as follows: Antiproliferative activity against human HT-29 cells over expressing GLUT1 assessed as cell viability measured after 48 hrs by MTT assay relative to control. The format is functional.
Series [12] relates to HT-29. The series is described as follows: Antiproliferative activity against human HT-29 cells over expressing GLUT1 assessed as cell viability measured after 48 hrs in presence of GLUT1-specific inhibitor quercetin by MTT assay relative to control. Type of series: functional.

Tubulin (Sus scrofa), sequence (P02550 whole entry, looked up): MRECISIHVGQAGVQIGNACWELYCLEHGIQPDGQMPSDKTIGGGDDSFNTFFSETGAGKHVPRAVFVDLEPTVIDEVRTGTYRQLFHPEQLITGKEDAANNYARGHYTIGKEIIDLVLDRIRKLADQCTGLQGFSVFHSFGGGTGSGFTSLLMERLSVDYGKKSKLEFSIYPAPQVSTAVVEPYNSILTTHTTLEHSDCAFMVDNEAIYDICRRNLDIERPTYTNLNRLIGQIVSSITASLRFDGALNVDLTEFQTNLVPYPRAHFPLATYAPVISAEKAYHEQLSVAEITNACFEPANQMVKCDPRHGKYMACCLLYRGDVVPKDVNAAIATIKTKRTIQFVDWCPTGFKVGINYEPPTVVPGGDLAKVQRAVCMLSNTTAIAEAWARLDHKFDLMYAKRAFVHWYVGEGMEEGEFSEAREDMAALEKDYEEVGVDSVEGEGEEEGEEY
Tubulin (Sus scrofa), sequence (P02554 whole entry, looked up): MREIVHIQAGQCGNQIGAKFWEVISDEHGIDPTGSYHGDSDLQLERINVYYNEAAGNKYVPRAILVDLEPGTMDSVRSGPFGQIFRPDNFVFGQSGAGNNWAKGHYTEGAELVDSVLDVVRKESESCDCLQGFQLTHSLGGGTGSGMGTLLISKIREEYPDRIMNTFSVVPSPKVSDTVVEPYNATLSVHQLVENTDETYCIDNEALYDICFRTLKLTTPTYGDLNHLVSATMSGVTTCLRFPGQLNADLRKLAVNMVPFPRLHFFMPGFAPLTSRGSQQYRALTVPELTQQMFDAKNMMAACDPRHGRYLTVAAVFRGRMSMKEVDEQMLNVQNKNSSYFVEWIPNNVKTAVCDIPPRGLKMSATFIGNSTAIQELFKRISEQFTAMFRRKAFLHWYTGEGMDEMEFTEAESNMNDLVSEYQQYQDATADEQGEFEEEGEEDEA

For `COc1cc2c(c(OC)c1OC)-c1ccc(OC)c(=O)cc1[C@@H](NC(=O)COCC(=O)O[C@H]1[C@H](O)[C@@H](CO)OC(O)[C@@H]1O)CC2` (some centres not stated), the values for the IC50 in the series on MCF7, in the series on HT-29 [1] and with Hep 3B2 were 1.2 µM, 0.83 µM and greater than 10 µM, respectively.

As for `COc1cc2c(c(OC)c1OC)-c1ccc(OC)c(=O)cc1[C@@H](NC(=O)CSCC(=O)O[C@H]1[C@H](O)[C@@H](CO)OC(O)[C@@H]1O)CC2` (some centres not stated), the “Ratio IC50” value in series [2] is 10.84; in series [6], 13.17. Also, the IC50 (usually the midpoint of a concentration-inhibition curve) was found to be 0.65 µM in the series on MCF7, 0.79 µM with HT-29 [1] and 8.56 µM in the series with Hep 3B2. The compound further returned a 50% inhibitory concentration (IC50) at 72 h in series [3] of 1.88 µM. For the same compound, the viability at 8 µM with HT-29 [4] turned out to be 12.5%; with HT-29 [9], 20.1%. Also, the inhibition result at Tubulin (Homo sapiens) [5] and on Tubulin (Homo sapiens) [10] was “Active” throughout. The inhibition result at Tubulin (Sus scrofa) was “Dde”. Besides, the results for the viability at 4 µM with HT-29 [7] and in the series with HT-29 [8] were 22.8% and 13.2%, respectively.

Take `COc1cc2c(c(OC)c1OC)-c1ccc(OC)c(=O)cc1[C@@H](NC(=O)CCCC(=O)OC[C@H]1OC(O)[C@@H](O)[C@@H](O)[C@@H]1O)CC2` (some centres not stated): the half-inhibitory concentration (IC50) in the series on MCF7, with HT-29 [1] and with Hep 3B2 was greater than 10 µM throughout.

For the compound `COc1cc2c(c(OC)c1OC)-c1ccc(OC)c(=O)cc1[C@@H](NC(=O)CCCCC(=O)OC[C@H]1OC(O)[C@@H](O)[C@@H](O)[C@@H]1O)CC2` (some centres not stated), the concentration for half-maximal inhibition (IC50) with MCF7, in the series on HT-29 [1] and in the series on Hep 3B2 was greater than 10 µM each time.

Consider `COc1cc2c(c(OC)c1OC)-c1ccc(OC)c(=O)cc1[C@@H](NC(=O)CCC(=O)OC[C@H]1OC(O)[C@H](O)[C@@H](O)[C@@H]1O)CC2` (some centres not stated), for which the entries for the “Ratio IC50” value in series [2] and in [6] were 5.83 and 5.52, respectively. In addition, the IC50 was determined as 1.15 µM in the series on MCF7, 1.09 µM with HT-29 [1] and 6.35 µM with Hep 3B2.

As for `COc1cc2c(c(OC)c1OC)-c1ccc(OC)c(=O)cc1[C@@H](NC(=O)COCC(=O)OC[C@H]1OC(O)[C@@H](O)[C@@H](O)[C@@H]1O)CC2` (some centres not stated), the results for the “Ratio IC50” value in series [2] and in series [6] were 2.19 and 2.92, respectively. Further, the IC50 was determined as 2.2 µM in the series on MCF7, 2.93 µM with HT-29 [1] and 6.43 µM in the series with Hep 3B2.

For `COc1cc2c(c(OC)c1OC)-c1ccc(OC)c(=O)cc1[C@@H](NC(=O)CCCC(=O)OC[C@H]1OC(O)[C@H](O)[C@@H](O)[C@@H]1O)CC2` (some centres not stated), the IC50 in the series with MCF7 is greater than 10 µM; in the series with HT-29 [1], 4.14 µM; with Hep 3B2, greater than 10 µM.

On to `COc1cc2c(c(OC)c1OC)-c1ccc(OC)c(=O)cc1[C@@H](NC(=O)CSCC(=O)OC[C@H]1OC(O)[C@H](O)[C@@H](O)[C@@H]1O)CC2` (some centres not stated), for which the “Ratio IC50” value in series [2] is listed as 7.98; in series [6], 2.6. For the same compound, the 50% inhibitory concentration (IC50) was 3.56 µM with MCF7, 1.16 µM in the series on HT-29 [1] and 9.26 µM with Hep 3B2.

Take `COc1cc2c(c(OC)c1OC)-c1ccc(OC)c(=O)cc1[C@@H](NC(=O)CCC(=O)OC[C@H]1OC(O)[C@@H](O)[C@@H](O)[C@@H]1O)CC2` (some centres not stated): the half-inhibitory concentration (IC50) in the series with MCF7 was 0.67 µM; with Hep 3B2 it was 2.91 µM. The “Ratio IC50” value in series [6] was 4.34.

Take `COc1cc2c(c(OC)c1OC)-c1ccc(OC)c(=O)cc1[C@@H](NC(=O)CSCC(=O)OC[C@H]1OC(O)[C@@H](O)[C@@H](O)[C@@H]1O)CC2` (some centres not stated): the concentration for half-maximal inhibition (IC50) is 6.05 µM with MCF7, 2.11 µM in the series with HT-29 [1] and greater than 10 µM in the series with Hep 3B2.

Turning to `COc1cc2c(c(OC)c1OC)-c1ccc(OC)c(=O)cc1[C@@H](NC(=O)CCC(=O)O[C@H]1[C@H](O)[C@@H](CO)OC(O)[C@@H]1O)CC2` (some centres not stated), the “Ratio IC50” value in [2] amounted to 7.17; in series [6], 9.25. The figures for the IC50 in the series on MCF7, in the series with HT-29 [1] and with Hep 3B2 were 0.76 µM, 0.98 µM and 7.03 µM, respectively.

`COc1cc2c(c(OC)c1OC)-c1ccc(OC)c(=O)cc1[C@@H](NC(=O)CCCCC(=O)OC[C@H]1OC(O)[C@H](O)[C@@H](O)[C@@H]1O)CC2` (some centres not stated): the results for the concentration for half-maximal inhibition (IC50) in the series on MCF7, in the series with HT-29 [1] and in the series with Hep 3B2 were greater than 10 µM, 9.73 µM and greater than 10 µM, respectively.

On to `COc1cc2c(c(OC)c1OC)-c1ccc(OC)c(=O)cc1[C@@H](NC(C)=O)CC2` [COLCHICINE], for which the results for the IC50 in the series on MCF7 and with Hep 3B2 were 0.043 µM and 0.14 µM, respectively. Moreover, in [3], 0.012 µM corresponded to half-maximal inhibition (IC50 at 72 h). For the same compound, the figures for the Activity in the series on HT-29 [11] and in the series with HT-29 [12] were 12.7% and 14.8%, respectively.

For `COc1cc2c(c(OC)c1OC)-c1ccc(OC)c(=O)cc1[C@@H](NC(=O)CCCCC(=O)O[C@H]1[C@H](O)[C@@H](CO)OC(O)[C@@H]1O)CC2` (some centres not stated), the concentration for half-maximal inhibition (IC50) with MCF7, in the series with HT-29 [1] and in the series on Hep 3B2 was greater than 10 µM throughout.

With `COc1cc2c(c(OC)c1OC)-c1ccc(OC)c(=O)cc1[C@@H](NC(=O)COCC(=O)OC[C@H]1OC(O)[C@H](O)[C@@H](O)[C@@H]1O)CC2` (some centres not stated), the “Ratio IC50” value is 19.04 in series [2] and 1.48 in series [6]. Also, the IC50 in the series with MCF7 amounted to 3.08 µM; with HT-29 [1] it was 0.24 µM; in the series with Hep 3B2 it was 4.57 µM.

Regarding `COc1cc2c(c(OC)c1OC)-c1ccc(OC)c(=O)cc1[C@@H](NC(=O)CCCC(=O)O[C@H]1[C@H](O)[C@@H](CO)OC(O)[C@@H]1O)CC2` (some centres not stated), the “Ratio IC50” value is 1.38 in [2] and 1.24 in series [6]. In addition, the results for the IC50 in the series on MCF7, in the series with HT-29 [1] and with Hep 3B2 were 7.17 µM, 6.47 µM and 8.91 µM, respectively.
